What was measured:
Type in all cases: biochemical
[1] = target: T1, papain (Carica papaya, UniProt P00784); assay: Inhibition of papain, incubation method; conditions: second-order rate constant, NI = no inhibition; for kinact/KI: pH 7.5, read-out: kobs/[I] papain
T1 sequence (P00784 134-345): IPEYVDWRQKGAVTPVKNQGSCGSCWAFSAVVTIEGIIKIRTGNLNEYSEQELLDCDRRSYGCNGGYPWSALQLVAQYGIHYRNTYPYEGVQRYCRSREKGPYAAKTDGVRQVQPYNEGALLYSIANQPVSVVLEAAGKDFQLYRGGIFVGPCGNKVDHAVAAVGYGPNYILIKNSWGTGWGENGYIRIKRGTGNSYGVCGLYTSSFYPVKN
Experimental: (§1) The release of 7-amino-4-methylcoumarin was monitored (λex=360 nm, λem=465 nm) using a Tecan Spectra Fluor microplate reader. Pseudo first-order inactivation rate constants were obtained from plots of In vt/vo versus time.
The incubation method was also used for papain. The inhibition incubation buffer for papain was 50 mM Hepes buffer at pH 7.5, containing 2.5 mM DTT and 2.5 mM EDTA. The assay used the substrate Z-Phe-Arg-pNA (53.7 μM) in the same buffer. The approximate concentration of papain added to the incubation buffer was 0.29 mg/mL. The release of p-nitroanilide was monitored at 405 nm with a Molecular Devices Thermomax microplate reader.

[2] = tested on: calpain; assay: Inhibition of calpain; conditions: second-order rate constant; NI = no inhibition
[3] = target: cathepsin B (Homo sapiens, UniProt P07858); assay: Inhibition of cathepsin B, incubation method; conditions: second-order rate constant, NI = no inhibition; for kinact/KI: pH 6, read-out: kobs/[I] cathepsin B
Source text: as §1

[4] = target: T2, caspase-1 (Homo sapiens, UniProt P29466, D381E); assay: Caspase-1 progress curve assay; conditions: D381E variant, substrate Ac-YVAD-AMC, 30° C.
T2 construct: His tag (N); made in house; host or cells: E. coli
T2 sequence (P29466 120-297 limits assumed): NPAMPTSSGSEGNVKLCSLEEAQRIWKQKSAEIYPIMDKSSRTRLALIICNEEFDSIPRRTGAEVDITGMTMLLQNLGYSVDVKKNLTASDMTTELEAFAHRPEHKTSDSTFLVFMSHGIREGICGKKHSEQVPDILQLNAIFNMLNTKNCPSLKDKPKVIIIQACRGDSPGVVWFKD
T2 sequence (P29466 317-404 D381E limits assumed): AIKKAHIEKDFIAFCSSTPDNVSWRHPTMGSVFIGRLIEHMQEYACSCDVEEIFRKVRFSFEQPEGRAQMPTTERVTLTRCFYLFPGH
Procedure, shortened: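 Autolysis-resistant D381E caspase-1 (E. coli, N-His tag), about 2 nM, added with 15 μM Ac-YVAD-AMC in HEPES/glycerol/EDTA buffer with 5 mM DTT to prewarmed compound at 30 °C. AMC fluorescence followed 900 s, triplicate curves fit to irreversible inactivation; kon (M^−1s^−1) from regression slope.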

[5] = target: T3, caspase-3 (Homo sapiens, UniProt P42574); assay: Caspase-3 progress curve assay; conditions: substrate Z-DEVD-AFC; NI = no inhibition
T3 construct: made in house; host or cells: E. coli
T3 sequence (P42574 29-175 limits assumed): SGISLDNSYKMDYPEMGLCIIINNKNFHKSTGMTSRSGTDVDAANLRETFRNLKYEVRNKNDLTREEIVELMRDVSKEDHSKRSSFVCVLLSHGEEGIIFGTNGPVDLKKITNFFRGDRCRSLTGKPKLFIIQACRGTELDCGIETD
T3 sequence (P42574 176-277 limits assumed): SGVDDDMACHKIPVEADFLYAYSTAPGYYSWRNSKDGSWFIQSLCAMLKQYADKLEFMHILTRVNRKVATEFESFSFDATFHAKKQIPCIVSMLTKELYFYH
Procedure, shortened: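 E. coli-expressed caspases, pre-activated 10 min at 37° C with 10 mM DTT, were added to 100 μM Z-DEVD-AFC plus inhibitor in 50 mM Hepes, 100 mM NaCl, 0.1% CHAPS, 10% sucrose, 10 mM DTT, pH 7.4. AFC fluorescence (ex 400/em 505 nm) was followed; inhibition rates and equilibria came from progress curves.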

Row | SMILES | kobs/[I] papain [1] [M⁻¹ s⁻¹] | kinact/KI [1] [M⁻¹ s⁻¹] | kinact/KI [3] [M⁻¹ s⁻¹] | kobs/[I] calpain [2] [M⁻¹ s⁻¹] | also measured
1 | CCOC(=O)[C@@H]1O[C@H]1C(=O)N(CCc1ccccc1)NC(=O)[C@H](CC(C)C)NC(C)=O (relative stereo) [Ac-Leu-AHph-trans-EP-COOEt, trans-3-(N^2-(N-Acetylleucyl)-N^1-phenylethylhydrazinocarbonyl)oxirane-2-carboxylic Acid Ethyl Ester] | – | 1.9 | 0.59 | 0.84 | –
2 | CCOC(=O)[C@@H]1O[C@H]1C(=O)N(CC(C)C)NC(=O)[C@H](CC(C)C)NC(=O)[C@H](CC(C)C)NC(=O)OCc1ccccc1 (relative stereo) [Cbz-Leu-Leu-ALeu-trans-EP-COOEt, trans-3-(N^2-(N-Benzyloxycarbonylleucylleucyl)-N^1-isobutylhydrazinocarbonyl)oxirane-2-carboxylic Acid Ethyl Ester] | – | 34.8 | – | 2.65 | –
3 | CCOC(=O)[C@@H]1O[C@H]1C(=O)N(CC(C)C)NC(=O)[C@H](CC(C)C)NC(C)=O (relative stereo) [Ac-Leu-ALeu-trans-EP-COOEt, trans-3-(N^2-(N-Acetylleucyl)-N^1-isobutylhydrazinocarbonyl)oxirane-2-carboxylic Acid Ethyl Ester] | – | 2.09 | 8 | 1.48 | –
4 | CCOC(=O)[C@H]1O[C@@H]1C(=O)N(CC(C)C)NC(=O)[C@H](CC(C)C)NC(=O)[C@H](CC(C)C)NC(=O)OCc1ccccc1 [Cbz-Leu-Leu-ALeu-(2S, 3S)-EP-COOEt, (2S,3S)-3-(N^2-(N-Benzyloxycarbonylleucylleucyl)-N^1-isobutylhydrazinocarbonyl)oxirane-2-carboxylic Acid Ethyl Ester] | – | 10.5 | 0.98 | 2.48 | –
5 | CC(C)C[C@H](NC(=O)OCc1ccccc1)C(=O)NN(CCc1ccccc1)C(=O)[C@H]1O[C@@H]1C(=O)O [Cbz-Leu-AHph-(2S, 3S)-EP-COOH, (2S,3S)-3-(N^2-(N-Benzyloxycarbonyleucyl)-N^1-phenylethylhydrazinocarbonyl)oxirane-2-carboxylic Acid] | – | – | – | 2.12 | –
6 | CCN(NC(=O)[C@H](CC(C)C)NC(=O)OCc1ccccc1)C(=O)[C@@H]1O[C@H]1C(=O)O (relative stereo) [Cbz-Leu-AAbu-trans-EP-COOH, trans-3-(N-(N-Benzyloxycarbonyleucyl)-N^1-ethylhydrazinocarbonyl)oxirane-2-carboxylic Acid] | 1.47 | – | – | 0.57 | –
7 | CCOC(=O)[C@@H]1O[C@H]1C(=O)N(CC)NC(=O)C(CC(C)C)NC(=O)OCc1ccccc1 (relative stereo) [Cbz-Leu-AAbu-trans-EP-COOEt, trans-3-(N^2-(N-Benzyloxycarbonyleucyl)-N^1-ethylhydrazinocarbonyl)oxirane-2-carboxylic Acid Ethyl Ester] | 4.94 | – | – | 1.98 | –

The next lines start with results.

Row | kobs/[I] papain [1] [M⁻¹ s⁻¹] | kinact/KI [1] [M⁻¹ s⁻¹] | kinact/KI [3] [M⁻¹ s⁻¹] | SMILES | kobs/[I] calpain [2] [M⁻¹ s⁻¹] | also measured
8 | 18.8 | – | – | CCOC(=O)[C@@H]1O[C@H]1C(=O)N(CCc1ccccc1)NC(=O)OCc1ccccc1 (relative stereo) [Cbz-AHph-trans-EP-COOEt, trans-3-(N^2-(N-Benzyloxycarbonyl)-N^1-phenylethylhydrazinocarbonyl)oxirane-2-carboxylic Acid Ethyl Ester] | 2.44 | kobs/[I] cathepsin B [3]: 8.91 M⁻¹ s⁻¹
9 | 10.53 | – | – | CCOC(=O)[C@H]1O[C@@H]1C(=O)N(CC(C)C)NC(=O)C(CC(C)C)NC(=O)OCc1ccccc1 (stereo partly drawn) [Cbz-Leu-ALeu-(2S, 3S)-EP-COOEt, (2S,3S)-3-(N^2-(N-Benzyloxycarbonyleucyl)-N^1-isobutylhydrazinocarbonyl)oxirane-2-carboxylic Acid Ethyl Ester] | 8.58 | kobs/[I] cathepsin B [3]: 1.8 M⁻¹ s⁻¹
10 | 2.16 | – | – | CCOC(=O)[C@@H]1O[C@H]1C(=O)N(CCc1ccccc1)NC(=O)[C@H](CC(C)C)NC(=O)OCc1ccccc1 [Cbz-Leu-AHph-(2R, 3R)-EP-COOEt, (2R,3R)-3-(N^2-(N-Benzyloxycarbonyleucyl)-N^1-phenylethylhydrazinocarbonyl)oxirane-2-carboxylic Acid Ethyl Ester] | 2.12 | –
11 | 1.03 | – | – | CCOC(=O)[C@@H]1O[C@@H]1C(=O)N(CCc1ccccc1)NC(=O)[C@H](CC(C)C)NC(=O)OCc1ccccc1 (relative stereo) [Cbz-Leu-AHph-cis-EP-COOEt, cis-3-(N-(N-Benzyloxycarbonyleucyl)-N^1-phenylethylhydrazinocarbonyl)oxirane-2-carboxylic Acid Ethyl Ester] | 1.09 | –
12 | – | < 10 | < 10 | CC(C)[C@H](NC(=O)CCc1ccccc1)C(=O)N[C@@H](C)C(=O)NN(CC(=O)O)C(=O)[C@@H]1O[C@H]1C(=O)OCc1ccccc1 (relative stereo) [23d (trans), trans-3-(N^2-(N-3-Phenylpropanoylvalylalanyl)-N^1-carboxylmethylhydrazinocarbonyl)oxirane-2-carboxylic Acid Benzyl Ester] | – | k2 caspase-1 [4]: 18070 ± 2625 M⁻¹ s⁻¹; k2 caspase-3 [5]: 680 ± 140 M⁻¹ s⁻¹
13 | – | 8.17 | 2.53 | CCOC(=O)CN(NC(=O)[C@H](C)NC(=O)[C@H](C)NC(=O)OCc1ccccc1)C(=O)[C@@H]1O[C@H]1C(=O)OCC (relative stereo) [Cbz-Ala-Ala-NHN(CH2COOEt)-trans-EP-COOEt, trans-3-(N^2-(N-Benzyloxycarbonylalanylalanyl)-N^1-ethoxycarbonylmethylhydrazinocarbonyl)oxirane-2-carboxylic Acid Ethyl Ester] | – | –
14 | 0.91 | – | – | CCOC(=O)[C@@H]1O[C@H]1C(=O)N(CC(C)C)NC(=O)[C@H](Cc1ccccc1)NC(=O)OCc1ccccc1 (relative stereo) [Cbz-Phe-ALeu-trans-EP-COOEt, trans-3-(N^2-(N-3-Benzyloxyphenylalanyl)-N^1-isobutylhydrazinocarbonyl)oxirane-2-carboxylic Acid Ethyl Ester] | – | kobs/[I] cathepsin B [3]: 3.61 M⁻¹ s⁻¹
15 | – | 8.5 | 1.8 | CCOC(=O)[C@@H]1O[C@H]1C(=O)N(NCc1ccccc1)C(=O)OCc1ccccc1 (relative stereo) [Cbz-APhe-trans-EP-COOEt, trans-3-(N^2-Benzyl-N^1-benzyloxycarbonylhydrazinocarbonyl)oxirane-2-carboxylic Acid Ethyl Ester] | – | –
16 | 6.70 | – | – | CCOC(=O)[C@@H]1O[C@H]1C(=O)N(CC(C)C)NC(=O)C(CC(C)C)NC(=O)OCc1ccccc1 (stereo partly drawn) [Cbz-Leu-ALeu-(2R, 3R)-EP-COOEt, (2R,3R)-3-(N^2-(N-Benzyloxycarbonyleucyl)-N^1-isobutylhydrazinocarbonyl)oxirane-2-carboxylic Acid Ethyl Ester] | 1.45 | –
17 | – | 0.9 | 1.3 | CCOC(=O)[C@@H]1O[C@H]1C(=O)N(CCC(N)=O)NC(=O)[C@H](Cc1ccccc1)NC(=O)[C@H](CC(C)C)NC(=O)OCc1ccccc1 (relative stereo) [Cbz-Leu-Phe-AGln-trans-EP-COOEt, trans-3-(N^2-(N-Benzyloxycarbonylleucylphenylalanyl)-N^1-carbamoylethylhydrazinocarbonyl)oxirane-2-carboxylic Acid Ethyl Ester] | – | –

From patent US7056947B2, “Aza-peptide epoxides” (Georgia Tech Research Corp., priority 2002, dated 2006)
